# From patent US11161864B2, “Sting agonists” (Venenum Biodesign, LLC, priority 2018, dated 2021)
# How the values were obtained:
# [1] = system: STING pathway, THP1 cells; test: Human IFN-α/β induction assay (THP1 supernatants on HEK-Blue IFN-α/β reporter cells); type: cell-based; details: THP1 cells 5 hrs, HEK-Blue reporter cells 24 hrs
# Description: Genetically engineered human type-1 Interferons (IFN-α/β) sensor cells-HEK Blue™ IFNα/β cells (Invivogen) were employed to measure the type-1 IFNs produced by THP1 cells that are treated with activators of STING. The human embryonic (HEK) Blue™ cells are specially designed to monitor the activation of JAK/STAT pathway induced by type 1 IFNs. Briefly, THP1 cells are treated with compounds for 5 hrs. In the second step, supernatants of THP1 cells are transferred to HEK Blue™ IFNα/β reporter cells and incubated for 24 hrs. The secreted embryonic alkaline phosphatase (SEAP) activity in the supernatants of HEK blue IFNα/3 reporter cells is measured and used to determine the quantities of IFNs.
# HEK-Blue IFN-α/β reporter cells (Invivogen) were used to measure the secretion of IFN-α/β into culture supernatants of THP1 cells following STING pathway activation. In the first step, THP1 cells were cultured in presence of STING activators for 5 hrs at 37° C., in a 5% CO2 tissue culture incubator, which facilitates the release of IFN-α/β into the supernatants. In the second step, cell supernatants from THP1 cells were transferred to HEK-Blue IFN-α/β reporter cells and incubated at 37° C., in a 5% CO2 incubator for 24 hrs. HEK-Blue IFN-α/β reporter cells are specifically designed to monitor the activation of JAK-STAT pathway activation by type 1 IFNs. These cells express a secreted embryonic alkaline phosphatase (SEAP) reporter gene under the control of ISG54 promoter, which is a well-known interferon stimulatory gene activated by type 1 IFNs. Upon IFN-α/β stimulation, HEK-Blue IFN-α/β reporter cells activate the JAK-STAT pathway and subsequently the expression of the reporter gene. SEAP which is secreted in the supernatant is easily detectable using alkaline phosphatase detection medium (Quanti-Blue reagent from Invivogen).
# These assays were run by adding 2 μL of compound stock solution to tissue culture treated 384-well plates with electronic pipettes. Compounds were diluted in autoclaved sterile water, initially spotted on the intermediate dilution plate and then to the assay plate. […]
# human STING (WT) = human STING (WT) (Homo sapiens (Human), UniProt Q86WV6, H232R); test: Thermal shift binding assay, human STING (WT); details: 100 μM compound, 5 μM STING protein; read-out: Human STING(WT) Tm Shift
# [2] = system: STING signaling, RAW-Dual reporter cells; test: Measurement of mouse IFN-β (ELISA); type: cell-based; details: Mus musculus, […]
# Description: Mouse Interferon-β (IFN-β) in the supernatants of murine macrophages treated with STING activators was quantified using sandwich enzyme linked immunosorbent assay (ELISA). Briefly, IFN-β binds to plates coated with antibody and detection is accomplished using a detection antibody followed by streptavidin conjugated to horseradish peroxidase. Tetramethyl-benzidine is used as the substrate in this kit (PBL Assay Science). […] In this invention, mouse IFN-β ELISA is used to determine the potency of compound on STING pathway activation in mouse macrophages.
# Murine macrophage derived cell line RAW-Dual reporter cells (Invivogen) were used to measure the IFN-β produced by STING signaling activation. Briefly, 20,000 cells in 27 μL were seeded into tissue culture treated 384-well plate that contained 3 μL of test compound. Cells were incubated at 37° C., in a 5% CO2 incubator for 5.5 hours. Supernatants from treated cells were diluted 20-fold and prior to measurement of IFN-β levels using ELISA kit (PBL Assay Science). 100 μL of diluted sample was added to ELISA plate. Plates were incubated at RT for 1 hour with shaking at 650 rpm. Post incubation, samples were aspirated from wells and the wells were washed 4 times. Diluted antibody (50 μL) was added to plates and incubated at RT for 30 minutes with shaking, followed by aspiration of antibody and 4× washes. Diluted HRP (horseradish peroxidase) solution (50 μL) was added and incubated for 10 minutes, followed by aspiration of the solution and 4× wash steps. After the final wash steps, plates were incubated with 100 μL of TMB (tetramethyl benzidine) substrate for 10 minutes, followed by addition of 100 μL of stop solution and plates were read on Envision plate reader for optical density.
# [3] = molecular target: human STING (G230A-R293Q) (Homo sapiens (Human), UniProt Q86WV6, G230A/H232R/R293Q); test: Thermal shift binding assay, human STING (AQ); details: 100 μM compound, 5 μM STING protein; read-out: Human STING(AQ) Tm Shift
# MC-38 tumor [4] = test: MC-38 tumor bearing mice treated with Example 1C and anti-PD-1, anti-PD-L1, anti-CTLA4; type: in vivo, C57BL/6J mice; details: for #Tumor Free Mice after Treatment: 10 animals/group
# Description: The animals were terminated when the tumor size reached 2,000 mm^3.
# CT-26 tumor = CT-26 tumor bearing mice, intra-tumoral treatment and re-challenge; details: for Number of surviving mice: 50 μg intra-tumoral Days 0, 3, 7; for Number of surviving mice in the re-challenge: mice with complete regression after 50 μg, re-challenged with CT-26, no further treatment
# mouse STING = mouse STING (Mus musculus (Mouse), UniProt Q3TBT3); test: Thermal shift binding assay, mouse STING; details: 100 μM compound, 5 μM STING protein; read-out: Mouse STING Tm Shift
# human STING (R232H) = human STING (R232H) (Homo sapiens, UniProt Q86WV6); test: Thermal shift binding assay, human STING (R232H); details: 100 μM compound, 5 μM STING protein; read-out: Human STING(R232H) Tm Shift
# [5] = molecular target: wild-type (WT) truncated human STING protein, amino acids 155-379 (Homo sapiens (Human), UniProt Q86WV6, H232R); test: Human WT STING [3H] 2′,3′-cGAMP scintillation proximity competition binding assay; details: read-out: Human WT Binding IC50
# Description: (§1) A human STING [^3H] 2′,3′-cGAMP scintillation proximity competition binding assay was utilized to detect binding of compounds to STING protein. […] The protein encoding plasmid contained a HIS tag, followed by an Avi tag and then a SUMO tag, which were followed by the STING coding sequence within the pET-28a (+) vector. The plasmid was transfected into a BL21 (DE3)/BirA E. coli co-expression strain. Protein was purified from the bacterial lysate using a cobalt-affinity column. The purified protein was dialyzed against PBS and then 20% glycerol was added prior to storage at −80° C.
# (§2) 2′,3′-cGAMP in assay buffer (50 mM Tris pH 7.5, 100 mM NaCl, 0.1% Fatty Acid Free BSA). Test compounds (2.5 μL) were added to the plate first followed by a 25 μL mixture of STING protein, streptavidin PVT SPA beads (Perkin Elmer) and 10 μL [^3H] 2′,3′-cGAMP. Plates were incubated at room temperature for 18 hrs and read on a Wallac MicroBeta TriLux (Perkin Elmer).
# MC-38 tumor [6] = test: Treatment of MC-38 tumors with Example 1C and radiotherapy; type: in vivo, C57BL/6J mice; details: for #Tumor Free Mice after Treatment: 10 animals/group
# Description: Tumors grew for 7 days to an average size of 100 mm^3. […] On Days −2, −1 and 0 received 5 Gy of radiation targeted to the tumor using the Small Animal Radiation Research Platform (SARRP) manufactured by Xstrahl Inc. Radiotherapy treatments were given according to the outline in Table 18. […] Radiotherapy treatments were given according to the outline in Table 19.
# [7] = molecular target: AQ variant of truncated human STING protein, amino acids 155-379 (Homo sapiens (Human), UniProt Q86WV6, G230A/H232R/R293Q); test: Human AQ STING [3H] 2′,3′-cGAMP scintillation proximity competition binding assay; details: read-out: Human AQ Binding IC50
# Description: as §1, §2
# [8] = system: STING pathway genes, THP1 Dual (HAQ) human cells; test: qRT-PCR assay, THP1 Dual (HAQ) human cells; type: cell-based
# MC-38 tumor [9] = test: MC-38 tumor bearing mice treated with Example 1C and anti-PD-1
# [10] = CTLA4 + PD-L1 (5 + 5 mg/kg) + 5 μg Example 1C
# [11] = Iso Ab (10 mg/kg) + 5 μg Example 1C
# [12] = PD1 + PD-L1 (5 + 5 mg/kg) + 5 μg Example 1C
# [13] = Example 1C 5 μg IT Day 0, 3, 7, 14, no RT
# [14] = RT (5 Gy) Day −1, 0 / Example 1C 5 μg IT Day 0, 3, 7, 14
# [15] = RT (5 Gy) Day −2, −1, 0 / Example 1C 5 μg IT Day 0, 3, 7, 14
# human STING (WT), sequence (Q86WV6 155-379 H232R): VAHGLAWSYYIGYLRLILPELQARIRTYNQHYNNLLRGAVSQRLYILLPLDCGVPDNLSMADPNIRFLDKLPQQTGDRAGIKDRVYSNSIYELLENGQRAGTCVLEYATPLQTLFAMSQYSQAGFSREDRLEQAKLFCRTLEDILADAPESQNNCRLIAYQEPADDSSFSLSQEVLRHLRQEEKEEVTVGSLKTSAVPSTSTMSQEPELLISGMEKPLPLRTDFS
# wild-type (WT) truncated human STING protein, amino acids 155-379, sequence (Q86WV6 155-379 H232R): as above
# human STING (G230A-R293Q), sequence (Q86WV6 155-379 G230A/H232R/R293Q): as the sequence (Q86WV6 155-379 H232R) above, with G76A, R139Q counted along it
# AQ variant of truncated human STING protein, amino acids 155-379, sequence (Q86WV6 155-379 G230A/H232R/R293Q): as the sequence (Q86WV6 155-379 H232R) above, with G76A, R139Q counted along it
# mouse STING, sequence (Q3TBT3 154-378): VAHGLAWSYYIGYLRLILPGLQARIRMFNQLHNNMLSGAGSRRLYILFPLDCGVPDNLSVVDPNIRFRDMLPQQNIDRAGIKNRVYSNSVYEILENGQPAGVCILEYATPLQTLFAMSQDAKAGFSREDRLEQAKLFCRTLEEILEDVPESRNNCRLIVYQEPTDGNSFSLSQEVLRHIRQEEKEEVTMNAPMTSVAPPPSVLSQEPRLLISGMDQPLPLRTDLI
smiles,measurement,setting,value
"Nc1nc2c(ncn2[C@@H]2O[C@@H]3COP(=O)(S)OCCn4c(nc5cncnc54)COP(=O)(S)O[C@@H]2[C@@H]3F)c(=O)[nH]1 (single isomer, unassigned) [Example 1C]",EC50,[1],< 5 µM
same,ΔTm at 100 µM,human STING (WT),10.1 to 20 °C
same,EC50,[2],< 5 µM
same,ΔTm at 100 µM,[3],> 20 °C
same,#Tumor Free Mice after Re-challenge,MC-38 tumor [4]; [10],6/6
same,#Tumor Free Mice after Treatment,MC-38 tumor [4]; [10],6/6
same,#Tumor Free Mice after Re-challenge,MC-38 tumor [4]; [11],1
same,#Tumor Free Mice after Treatment,MC-38 tumor [4]; [11],2
same,#Tumor Free Mice after Re-challenge,MC-38 tumor [4]; [12],5
same,#Tumor Free Mice after Treatment,MC-38 tumor [4]; [12],8
same,Number of surviving mice,CT-26 tumor; Day 0,10/10
same,Number of surviving mice,CT-26 tumor; Day 3,10/10
same,Number of surviving mice,CT-26 tumor; Day 7,10/10
same,Number of surviving mice,CT-26 tumor; Day 10,10/10
same,Number of surviving mice,CT-26 tumor; Day 14,10/10
same,Number of surviving mice,CT-26 tumor; Day 17,10/10
same,Number of surviving mice,CT-26 tumor; Day 20,10/10
same,Number of surviving mice,CT-26 tumor; Day 23,10/10
same,Number of surviving mice,CT-26 tumor; Day 35,8/10
same,Number of surviving mice in the re-challenge,CT-26 tumor; Rechallenge Day 0,8/8
same,Number of surviving mice in the re-challenge,CT-26 tumor; Rechallenge Day 7,8/8
same,Number of surviving mice in the re-challenge,CT-26 tumor; Rechallenge Day 11,8/8
same,Number of surviving mice in the re-challenge,CT-26 tumor; Rechallenge Day 14,8/8
same,Number of surviving mice in the re-challenge,CT-26 tumor; Rechallenge Day 17,8/8
same,Number of surviving mice in the re-challenge,CT-26 tumor; Rechallenge Day 20,8/8
same,Number of surviving mice in the re-challenge,CT-26 tumor; Rechallenge Day 24,8/8
same,Number of surviving mice in the re-challenge,CT-26 tumor; Rechallenge Day 27,8/8
same,Number of surviving mice in the re-challenge,CT-26 tumor; Rechallenge Day 30,8/8
same,Number of surviving mice in the re-challenge,CT-26 tumor; Rechallenge Day 33,8/8
same,ΔTm at 100 µM,mouse STING,> 20 °C
same,ΔTm at 100 µM,human STING (R232H),5 to 10 °C
same,IC50,[5],< 1 µM
same,#Tumor Free Mice after Re-challenge,MC-38 tumor [6]; [13],0/0
same,#Tumor Free Mice after Treatment,MC-38 tumor [6]; [13],0/0
same,#Tumor Free Mice after Re-challenge,MC-38 tumor [6]; [14],3
same,#Tumor Free Mice after Treatment,MC-38 tumor [6]; [14],4
same,#Tumor Free Mice after Re-challenge,MC-38 tumor [6]; [15],7
same,#Tumor Free Mice after Treatment,MC-38 tumor [6]; [15],8
same,IC50,[7],< 1 µM
same,increase in CXCL10,[8],1000 fold
same,increase in IL-6 compared to Control,[8],300 fold
same,increase of IFN-β mRNA compared to ADU-S100,[8],30 fold
same,increase of IFN-β mRNA compared to Control,[8],4000 fold
same,Number of surviving mice,"MC-38 tumor [9]; 5 μg Example 1C + 10 mg/kg Anti-PD-1, Day 0",10/10
same,Number of surviving mice,"MC-38 tumor [9]; 5 μg Example 1C + 10 mg/kg Anti-PD-1, Day 3",10/10
same,Number of surviving mice,"MC-38 tumor [9]; 5 μg Example 1C + 10 mg/kg Anti-PD-1, Day 6",10/10
same,Number of surviving mice,"MC-38 tumor [9]; 5 μg Example 1C + 10 mg/kg Anti-PD-1, Day 10",10/10
same,Number of surviving mice,"MC-38 tumor [9]; 5 μg Example 1C + 10 mg/kg Anti-PD-1, Day 14",10/10
same,Number of surviving mice,"MC-38 tumor [9]; 5 μg Example 1C + 10 mg/kg Anti-PD-1, Day 17",10/10
same,Number of surviving mice,"MC-38 tumor [9]; 5 μg Example 1C + 10 mg/kg Anti-PD-1, Day 21",10/10
same,Number of surviving mice,"MC-38 tumor [9]; 5 μg Example 1C + 10 mg/kg Anti-PD-1, Day 24",10/10
same,Number of surviving mice,"MC-38 tumor [9]; 5 μg Example 1C + 10 mg/kg Anti-PD-1, Day 27",9/10
same,Number of surviving mice,"MC-38 tumor [9]; 5 μg Example 1C + 10 mg/kg Anti-PD-1, Day 30",8/10
same,Number of surviving mice,"MC-38 tumor [9]; 5 μg Example 1C + 10 mg/kg Anti-PD-1, Day 34",7/10
same,Number of surviving mice,"MC-38 tumor [9]; 5 μg Example 1C intra-tumoral Days 0, 3, 7, Day 0",10/10
same,Number of surviving mice,"MC-38 tumor [9]; 5 μg Example 1C intra-tumoral Days 0, 3, 7, Day 3",10/10
same,Number of surviving mice,"MC-38 tumor [9]; 5 μg Example 1C intra-tumoral Days 0, 3, 7, Day 6",10/10
same,Number of surviving mice,"MC-38 tumor [9]; 5 μg Example 1C intra-tumoral Days 0, 3, 7, Day 10",10/10
same,Number of surviving mice,"MC-38 tumor [9]; 5 μg Example 1C intra-tumoral Days 0, 3, 7, Day 14",10/10
same,Number of surviving mice,"MC-38 tumor [9]; 5 μg Example 1C intra-tumoral Days 0, 3, 7, Day 17",10/10
same,Number of surviving mice,"MC-38 tumor [9]; 5 μg Example 1C intra-tumoral Days 0, 3, 7, Day 21",10/10
same,Number of surviving mice,"MC-38 tumor [9]; 5 μg Example 1C intra-tumoral Days 0, 3, 7, Day 24",10/10
same,Number of surviving mice,"MC-38 tumor [9]; 5 μg Example 1C intra-tumoral Days 0, 3, 7, Day 27",7/10
same,Number of surviving mice,"MC-38 tumor [9]; 5 μg Example 1C intra-tumoral Days 0, 3, 7, Day 30",3/10
same,Number of surviving mice,"MC-38 tumor [9]; 5 μg Example 1C intra-tumoral Days 0, 3, 7, Day 34",1/10
